From article PMC10649008 (Antimicrobial Agents and Chemotherapy, 2023)
Where two headings read alike, the source gives them in different places.

Key:
[1] = Single-dose plasma pharmacokinetics of telavancin in pediatric subjects (noncompartmental analysis); assay type: in vivo, human; conditions: single 10 mg/kg IV infusion over 60 min; for Tmax / Cmax / half-life: iv; for Tmax: median (minimum–maximum), read-out: T max (time at maximum concentration); for Cmax: read-out: C max (maximum plasma concentration); for half-life: read-out: T 1/2 (terminal elimination half-life) (converted)
Method: The drug was infused over 60 min on Day 1. Blood samples were collected at 1, 1.5, 2, 6, 12, and 24 h following the start of infusion for PK analysis.
Subjects with missing early PK samples were included in the PK population for plasma concentrations at each collected time point, but they were excluded from the PK modeling. […] The primary endpoints calculated from the plasma concentration-time data were maximum observed plasma concentration (C max), time to reach maximum plasma concentration (T max), area under the plasma concentration versus time curve from time 0 to the last sample with measurable analyte concentration (AUC0-last), area under the concentration versus time curve extrapolated to infinity (AUCinf), and terminal elimination half-life (T 1/2). CL and apparent steady-state volume of distribution (Vss) were also calculated from the plasma concentration-time data. PK parameters were calculated using noncompartmental analysis with Phoenix WinNonlin v8.1 (Certara, Princeton, NJ, USA).
For calculation of mean concentrations at each time point and generation for mean concentration versus time profiles, all values below the limit of quantification (BLQ) were set to 0. […] For the NCA, actual infusion durations and actual sampling times were used. Infusion duration was calculated as the difference between the start of infusion time and the end of infusion time. Actual sampling times were calculated as the difference between the start of infusion time and the sampling time.
For PK analysis and individual concentration versus time plots, a concentration that was BLQ was assigned a value of 0, if it occurred in a profile before the first measurable concentration and was set to missing thereafter, if two BLQ values occurred in succession after C max, the profile was deemed to have terminated at the first BLQ value, and any subsequent concentrations were omitted from PK calculations.

[2] = Source text: All study procedures were reviewed and approved by the respective Institutional Review Board for each study site. Prior to any study procedures, written informed consent from a parent or legal guardian and assent (if appropriate for older patients) were obtained. The patient population consisted of subjects aged >12 months to <17 years of age who required systemic antibiotic therapy for the treatment or prevention of known or suspected bacterial infection. Subjects were enrolled into four cohorts stratified by age: adolescents (12–17 years of age), older children (6–11 years of age), younger children (2–5 years of age), and infants (1–2 years of age). […] The study consisted of a screening period followed by a treatment period and a safety follow-up period through Day 8 ± 1 day.
Safety was monitored during both the screening and treatment periods by physical exams, vital signs, urinalysis, and clinical laboratory measures (complete blood count with differential, serum chemistry, creatinine, and liver enzymes); AEs and concomitant medications were recorded from screening through follow-up on Day 8 (± 1 day). Medical and medication history and demographics were collected at screening. Vital signs (heart rate, blood pressure, respiratory rate, and body temperature) were collected at screening, Days 1 and 2 of the study.

[3] = Cohort 2 (6–11 years), N = 6, plasma, noncompartmental, mean ± SD
[4] = Cohort 3 (2–5 years), N = 1, plasma, noncompartmental
[5] = human, in vivo, 10 mg/kg, Cohort 1 (12–17 years), N = 13, plasma, mean ± SD
[6] = human, in vivo, 10 mg/kg, Cohort 2 (6–11 years), N = 6, plasma, mean ± SD
[7] = Cohort 1 (12–17 years), of 16 AEs, single 10 mg/kg IV

In the case of `CCCCCCCCCCNCCN[C@@]1(C)C[C@H](O[C@H]2[C@H](Oc3c4cc5cc3Oc3ccc(cc3Cl)[C@@H](O)[C@@H](NC(=O)[C@@H](CC(C)C)NC)C(=O)N[C@@H](CC(N)=O)C(=O)N[C@H]5C(=O)N[C@H]3C(=O)N[C@H](C(=O)N[C@H](C(=O)O)c5cc(O)c(CNCP(=O)(O)O)c(O)c5-c5cc3ccc5O)[C@H](O)c3ccc(c(Cl)c3)O4)O[C@H](CO)[C@@H](O)[C@@H]2O)O[C@@H](C)[C@H]1O` [telavancin], the “Mean plasma telavancin concentration” value ([1]; Cohort 1 (12–17 years), N = 13–14, nominal time 1 h after start of infusion, mean ± SD) is reported as 58.1 ± 8.38, the “Mean plasma telavancin concentration” value ([1]; Cohort 1 (12–17 years), N = 13–14, nominal time 1.5 h, mean ± SD) is reported as 46.2 ± 7.01 and the “Mean plasma telavancin concentration” value ([1]; Cohort 1 (12–17 years), N = 13–14, nominal time 2 h, mean ± SD) is reported as 37.4 ± 5.26. For the same compound, the “Mean plasma telavancin concentration” value ([1]; Cohort 1 (12–17 years), N = 13–14, nominal time 6 h, mean ± SD) was 19.8 ± 3.58, the “Mean plasma telavancin concentration” value ([1]; Cohort 1 (12–17 years), N = 13–14, nominal time 12 h, mean ± SD) was 8.84 ± 3.51 and the “Mean plasma telavancin concentration” value ([1]; Cohort 1 (12–17 years), N = 13–14, nominal time 24 h, mean ± SD) was 2.14 ± 0.922. For the same compound, the “CL (clearance)” value ([1]; Cohort 2 (6–11 years), N = 6, mean ± SD) was 0.5 ± 0.135 mL/min/kg, the “AUC0-inf (area under the curve extrapolated to infinity)” value [1, 3] was 351 ± 79.7 µg·h/mL and the “AUC0-last (area under the curve from time zero until the last PK sample)” value [1, 3] was 333 ± 74.2 µg·h/mL. For the same compound, the “Mean plasma telavancin concentration” value ([1]; Cohort 2 (6–11 years), N = 6–7, nominal time 1 h after start of infusion, mean ± SD) was 60.1 ± 11.9, the “Mean plasma telavancin concentration” value ([1]; Cohort 2 (6–11 years), N = 6–7, nominal time 1.5 h, mean ± SD) was 48.4 ± 8.66 and the “Mean plasma telavancin concentration” value ([1]; Cohort 2 (6–11 years), N = 6–7, nominal time 2 h, mean ± SD) was 41.9 ± 7.65. For the same compound, the “Mean plasma telavancin concentration” value ([1]; Cohort 2 (6–11 years), N = 6–7, nominal time 6 h, mean ± SD) was 20.7 ± 3.64, the “Mean plasma telavancin concentration” value ([1]; Cohort 2 (6–11 years), N = 6–7, nominal time 12 h, mean ± SD) was 9.20 ± 2.50 and the “Mean plasma telavancin concentration” value ([1]; Cohort 2 (6–11 years), N = 6–7, nominal time 24 h, mean ± SD) was 2.08 ± 1.23. The “CL (clearance)” value ([1]; Cohort 3 (2–5 years), N = 1) was 0.728 mL/min/kg, the “T max (time at maximum concentration)” value ([1]; Cohort 3 (2–5 years), N = 1) was 1.18 h and the “Mean plasma telavancin concentration” value ([1]; Cohort 3 (2–5 years), N = 1, nominal time 1 h after start of infusion) was 53.1. For the same compound, the “Mean plasma telavancin concentration” value ([1]; Cohort 3 (2–5 years), N = 1, nominal time 1.5 h) was 45.0, the “Mean plasma telavancin concentration” value ([1]; Cohort 3 (2–5 years), N = 1, nominal time 2 h) was 37.3 and the “Mean plasma telavancin concentration” value ([1]; Cohort 3 (2–5 years), N = 1, nominal time 6 h) was 18.0. For the same compound, the “Mean plasma telavancin concentration” value ([1]; Cohort 3 (2–5 years), N = 1, nominal time 12 h) was 2.67, the “Mean plasma telavancin concentration” value ([1]; Cohort 3 (2–5 years), N = 1, nominal time 24 h) was 0.146 and the “C max (maximum plasma concentration)” value ([1]; Cohort 3 (2–5 years), N = 1, plasma) was 53.1 µg/mL. The “T 1/2 (terminal elimination half-life)” value ([1]; Cohort 3 (2–5 years), N = 1, plasma, 10 mg/kg) was 2.73 h, the “AUC0-inf (area under the curve extrapolated to infinity)” value [1, 4] was 229 µg·h/mL and the “AUC0-last (area under the curve from time zero until the last PK sample)” value [1, 4] was 228 µg·h/mL. It also gave a Tmax ([1]; human, in vivo, 10 mg/kg, Cohort 1 (12–17 years), N = 13) of 1.02 h, a Cmax [1, 5] of 58.3 ± 8.4 µg/mL and a half-life [1, 5] of 5.6 ± 1.01 h. It also gave a Tmax ([1]; human, in vivo, 10 mg/kg, Cohort 2 (6–11 years), N = 6) of 1.09 h, a Cmax [1, 6] of 60.1 ± 11.9 µg/mL and a half-life [1, 6] of 5.19 ± 0.751 h. The clearance ([1]; human, in vivo, Cohort 1 (12–17 years), N = 13, mean ± SD, read-out: CL (clearance) (converted)) was 0.497 mL/min/kg, the AUC(0-inf) ([1]; human, in vivo, Cohort 1 (12–17 years), N = 13, plasma, noncompartmental, mean ± SD, read-out: AUC0-inf (area under the curve extrapolated to infinity)) was 345 ± 58.5 µg·h/mL and the AUC(0-t) ([1]; human, in vivo, Cohort 1 (12–17 years), N = 13, plasma, noncompartmental, mean ± SD, read-out: AUC0-last (area under the curve from time zero until the last PK sample)) was 326 ± 50 µg·h/mL. The “Number of adverse events” value ([2]; Cohort 1 (12–17 years), N = 14, across six patients, single 10 mg/kg IV) was 16, the “Adverse events deemed probably related to telavancin administration” value ([2]; Cohort 1 (12–17 years), fifteen of the 16 events) was 94% and the “Number of adverse events mild in severity” value [2, 7] was 13. For the same compound, the “Number of adverse events moderate in severity” value [2, 7] was 3, the “Number of adverse events” value ([2]; Cohort 2 (6–11 years), N = 7, across four patients, single 10 mg/kg IV) was 11 and the “Number of adverse events mild in severity” value ([2]; Cohort 2 (6–11 years), of 11 AEs, single 10 mg/kg IV) was “nine”.
